# Experimental data as given in ChEMBL document CHEMBL1201862, “PubChem BioAssay data set” (2004).
#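 Step 1: Grow cells in 96-well plates. Step 2: Expose to compound for 48 hours at 5 concentrations. Step 3: Interpolate endpoints linearly; if unreached, use highest concentration. Abbreviation: GI50, concentration required for 50% inhibition of growth.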 Calls of active or inactive are those of the source. Rule as the data show it: active = GI50 up to about 1.1 µM and inactive = higher.
# Columns and labels:
# Experiment in all cases: growth of human tumour cells (NCI), 48 h
# T47D = test system: T47D
# RXF 393 = test system: RXF 393
# SW-620 = test system: SW-620
# MDA-MB-435 = test system: MDA-MB-435
# PC-3 = test system: PC-3
# HOP-92 = test system: HOP-92
# Malme-3M = test system: Malme-3M
# 786-0 = test system: 786-0
# A498 = test system: A498
# U-251 = test system: U-251
# SK-MEL-28 = test system: SK-MEL-28
# BT-549 = test system: BT-549
# SK-MEL-2 = test system: SK-MEL-2
# SK-OV-3 = test system: SK-OV-3
# DU-145 = test system: DU-145
# NCI/ADR-RES = test system: NCI/ADR-RES
# Hs-578T = test system: Hs-578T
# CCRF-CEM = test system: CCRF-CEM
# MCF7 = test system: MCF7
# M14 = test system: M14
Compound,GI50 (T47D),GI50 (RXF 393),GI50 (SW-620),GI50 (MDA-MB-435),GI50 (PC-3),GI50 (HOP-92),GI50 (Malme-3M),GI50 (786-0),GI50 (A498),GI50 (U-251),GI50 (SK-MEL-28),GI50 (BT-549),GI50 (SK-MEL-2),GI50 (SK-OV-3),GI50 (DU-145),GI50 (NCI/ADR-RES),GI50 (Hs-578T),GI50 (CCRF-CEM),GI50 (MCF7),GI50 (M14)
COc1ccc2nc3cc(Cl)ccc3c(NCCNC(=O)Cn3c(=O)n(C)c(=O)c4c3nc3c(c(=O)n(C)c(=O)n3C)[n+]4[O-])c2c1,35.6 µM (inactive),42.1 µM (inactive),34.2 µM (inactive),> 45.7 µM (inactive),38.4 µM (inactive),28.1 µM (inactive),37.2 µM (inactive),43.1 µM (inactive),> 60.4 µM (inactive),21 µM (inactive),> 31.6 µM (inactive),23 µM (inactive),35.2 µM (inactive),32.1 µM (inactive),> 84.3 µM (inactive),38.8 µM (inactive),20.3 µM (inactive),50 µM (inactive),33 µM (inactive),> 81.8 µM (inactive)
C#CCOC(=O)C(N)CCSC (stereo not given),> 100 µM (inactive),> 100 µM (inactive),> 100 µM (inactive),> 100 µM (inactive),> 100 µM (inactive),> 100 µM (inactive),> 100 µM (inactive),> 100 µM (inactive),> 100 µM (inactive),> 100 µM (inactive),> 100 µM (inactive),> 100 µM (inactive),> 100 µM (inactive),> 100 µM (inactive),> 100 µM (inactive),> 100 µM (inactive),> 100 µM (inactive),> 100 µM (inactive),> 100 µM (inactive),> 100 µM (inactive)
Cn1c([N+](=O)[O-])cnc1CN1CCN(CCO)CC1,> 100 µM (inactive),> 100 µM (inactive),> 100 µM (inactive),> 100 µM (inactive),> 100 µM (inactive),> 100 µM (inactive),> 100 µM (inactive),> 100 µM (inactive),> 100 µM (inactive),> 100 µM (inactive),> 100 µM (inactive),> 100 µM (inactive),> 100 µM (inactive),> 100 µM (inactive),> 100 µM (inactive),> 100 µM (inactive),> 100 µM (inactive),> 100 µM (inactive),> 100 µM (inactive),> 100 µM (inactive)
O=c1c(C(c2ccc(/C=C/c3ccccc3)cc2)c2c(O)oc3cc(O)ccc3c2=O)c(O)oc2cc(O)ccc12,52.6 µM (inactive),> 100 µM (inactive),91.8 µM (inactive),82.2 µM (inactive),> 100 µM (inactive),75.2 µM (inactive),> 100 µM (inactive),> 100 µM (inactive),> 100 µM (inactive),2.88 µM (inactive),11.3 µM (inactive),98.9 µM (inactive),> 100 µM (inactive),> 100 µM (inactive),> 100 µM (inactive),> 100 µM (inactive),56.6 µM (inactive),37.6 µM (inactive),49.9 µM (inactive),> 100 µM (inactive)
N/C(=N\NC(=O)c1nc2ccccc2s1)c1ccccn1,10.6 µM (inactive),7.96 µM (inactive),6.82 µM (inactive),7.1 µM (inactive),9.31 µM (inactive),> 34 µM (inactive),30 µM (inactive),4.33 µM (inactive),8.34 µM (inactive),4.79 µM (inactive),43.2 µM (inactive),31.3 µM (inactive),19.5 µM (inactive),9.79 µM (inactive),4.27 µM (inactive),1.11 µM (active),> 100 µM (inactive),2.42 µM (inactive),4.39 µM (inactive),3.01 µM (inactive)
Clc1ccc(C2=NN=C3C(c4ccccc4)=Nc4ccccc4N3C2)cc1,1.45 µM (inactive),1.48 µM (inactive),5.45 µM (inactive),4.72 µM (inactive),8.61 µM (inactive),> 25.1 µM (inactive),5.45 µM (inactive),5.28 µM (inactive),56.1 µM (inactive),5.46 µM (inactive),37.5 µM (inactive),12.1 µM (inactive),17.7 µM (inactive),> 74.8 µM (inactive),1.91 µM (inactive),4.48 µM (inactive),2.09 µM (inactive),2.03 µM (inactive),4.4 µM (inactive),2.79 µM (inactive)
CCN(CC)Cc1ccc(Nc2c3ccccc3nc3ccccc23)cc1,4.16 µM (inactive),1.72 µM (inactive),1.64 µM (inactive),2.04 µM (inactive),1.59 µM (inactive),2.79 µM (inactive),1.36 µM (inactive),1.67 µM (inactive),3.09 µM (inactive),2.16 µM (inactive),1.61 µM (inactive),10.1 µM (inactive),2.99 µM (inactive),2 µM (inactive),2.37 µM (inactive),5.48 µM (inactive),4.86 µM (inactive),1.82 µM (inactive),1.71 µM (inactive),1.77 µM (inactive)
Cc1c(C)c(C)c(CSC(=N)N)c(C)c1C,14.6 µM (inactive),17.5 µM (inactive),15.6 µM (inactive),14.2 µM (inactive),12.2 µM (inactive),14 µM (inactive),15.9 µM (inactive),15.9 µM (inactive),16.2 µM (inactive),13.6 µM (inactive),15.4 µM (inactive),16.4 µM (inactive),14.6 µM (inactive),16 µM (inactive),16.9 µM (inactive),15.2 µM (inactive),15.6 µM (inactive),15.5 µM (inactive),17.1 µM (inactive),10.8 µM (inactive)
Oc1c(CN2CCCC2)ccc2cccnc12,23 µM (inactive),> 67.9 µM (inactive),24.2 µM (inactive),38.9 µM (inactive),> 39.5 µM (inactive),26.4 µM (inactive),25.1 µM (inactive),17.9 µM (inactive),29.9 µM (inactive),16.2 µM (inactive),22.5 µM (inactive),46.1 µM (inactive),> 47 µM (inactive),25.9 µM (inactive),23.2 µM (inactive),2.38 µM (inactive),> 83.4 µM (inactive),8.77 µM (inactive),29.6 µM (inactive),15.7 µM (inactive)
CC1CC2OC(=O)C(C)C2CC2(C)C(OC3OC(CO)C(O)C(O)C3O)OCCC12 (stereo not given),> 100 µM (inactive),> 100 µM (inactive),> 100 µM (inactive),> 100 µM (inactive),> 100 µM (inactive),> 100 µM (inactive),> 100 µM (inactive),> 100 µM (inactive),> 100 µM (inactive),> 100 µM (inactive),> 100 µM (inactive),15.5 µM (inactive),> 100 µM (inactive),> 100 µM (inactive),> 100 µM (inactive),> 100 µM (inactive),> 100 µM (inactive),> 100 µM (inactive),> 100 µM (inactive),> 100 µM (inactive)
CC(=O)OC1CCn2c1nc1c2C(=O)C=C(N2CC2)C1=O (stereo not given),0.745 µM (active),0.0748 µM (active),< 0.0211 µM (active),0.476 µM (active),0.931 µM (active),0.378 µM (active),0.0311 µM (active),0.108 µM (active),0.218 µM (active),0.218 µM (active),0.0314 µM (active),1.27 µM (inactive),0.2 µM (active),2.15 µM (inactive),3.31 µM (inactive),0.402 µM (active),0.524 µM (active),< 0.01 µM (active),0.173 µM (active),0.0519 µM (active)
